From US20240374673A1, “PHARMACEUTICAL COMPOSITION FOR PREVENTING OR TREATING INFLAMMATORY SKIN DISEASE” (3BIGS CO., LTD., priority 2021, published 2024)
Residues, ends and D or L forms follow the SMILES beside them.

Experiment: Body weight in chronic contact dermatitis mouse model
Assay type: in vivo
Settings: DNCB mice
Protocol: The 6-week-old male […] mouse used in the animal experiment is a species of ‘SKH-1 hairless’ and barely has body hair to ensure convenience in intuitively observing the skin condition, of which was divided, for experiment, into 3 groups out of 18 individuals in total (6 individuals for a negative control group/6 individuals for a positive control group/6 individuals for a novel peptide treated group).
After an adaptation period of about 2 weeks, 100 μL of 2,4-dinitrochlorobenzene (DNCB) prepared at a concentration of 1% in solution of acetone: olive oil (3:1) was applied onto the dorsal skin of mice at a certain time every day. After 1 week, if the incidence of contact dermatitis was observed, the DNCB was lowered to 0.5% and applied by 100 μL every 2 days, and the novel peptide was prepared in normal saline at a concentration of 1 mg/ml and applied by 100 μg daily for 3 weeks, while skin condition was observed every week during the experiment.

Compound: C[C@@H](O)[C@H](NC(=O)[C@@H](N)CCCCN)C(=O)N[C@@H](Cc1ccccc1)C(=O)N[C@@H](CCCNC(=N)N)C(=O)O [novel peptide, KTFR] (H-KTFR-OH)
- changes in the body weight (100 μg applied daily for 3 weeks): no significant changes in the body weight
- stress induced by the peptide (concluded from body weight): no stress was induced
